Measurements reported in US9481654B2, “Compositions and methods for inhibition of the JAK pathway” (Rigel Pharmaceuticals, Inc., priority 2006, dated 2016).
pIC50: −log10 of the molar value.

Experiments:
[1] = tested on: primary human T-cells (IL-2 induced proliferation, JAK-1/JAK-3, Stat-5); test: Primary Human T-Cell Proliferation Assay Stimulated with IL-2 (CellTiter-Glo); format: cell-based; conditions: Table III Example 4
Outline: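 Read-out is intracellular ATP luminescence (CellTiter-Glo) after 72 h at 37 °C of IL-2-driven growth. Cells, pre-stimulated via TCR and CD28 then washed free of IL-2, were resuspended in Yssel's medium, given 80 U/mL IL-2 in the cell suspension plus duplicate compound; unstimulated wells lacked IL-2.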

[2] = tested on: IL-4 stimulated CD23 upregulation in human Ramos B cells (JAK-1/JAK-3, Stat-6); test: Assay for Ramos B-Cell Line Stimulated with IL-4 (CD23 upregulation, FACS); format: cell-based; conditions: Table III Example 3
Outline: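 Flow cytometry of CD23 staining after 20-24 h IL-4 stimulation (50 units/mL final) of human Ramos B cells in RPMI with 5% serum. Cells, 5×10^4 per point, received compound or DMSO vehicle for 1 h at 37° C prior to stimulation.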

[3] = tested on: IFNγ induced ICAM-1 (CD54) up-regulation in A549 lung epithelial cells (JAK/Stat pathway); test: A549 Epithelial Line Stimulated with IFNγ (ICAM-1 surface expression, flow cytometry); format: cell-based, human; conditions: Table III Example 5
From the text: The activity of the compounds of the invention may additionally be characterized by assaying the effect of the 2,4-pyrimidinediamine compounds described herein on A549 lung epithelial cells and U937 cells. A549 lung epithelial cells and U937 cells up-regulate ICAM-1 (CD54) surface expression in response to a variety of different stimuli. Therefore, using ICAM-1 expression as readout, test compound effects on different signaling pathways can be assessed in the same cell type. Stimulation with IL-1β through the IL-1β receptor activates the TRAF6/NFκB pathway resulting in up-regulation of ICAM-1. IFNγ induces ICAM-1 up-regulation through activation of the JAK1/JAK2 pathway. The up-regulation of ICAM-1 can be quantified by flow cytometry across a compound dose curve and EC50 values are calculated. Exemplary assays of this type are described in greater detail in Examples 5 and 6.
A549 lung epithelial cells up-regulate ICAM-1 (CD54) surface expression in response to a variety of different stimuli. Therefore, using ICAM-1 expression as readout, compound effects on different signaling pathways can be assessed in the same cell type. IFNγ up-regulates ICAM-1 through activation of the JAK/Stat pathway. In this example, the up-regulation of ICAM-1 by IFNγ was assessed.
The A549 lung epithelial carcinoma cell line originated from the American Type Culture Collection. Routine culturing was with F12K media (Mediatech Inc., Lenexa, Kans., Cat. No. 10-025-CV) with 10% fetal bovine serum, 100 I.U. penicillin and […] streptomycin (complete F12k media). Cells were incubated in a humidified atmosphere of 5% CO2 at 37° C. Prior to use in the assay, A549 cells were washed with PBS and trypsinized (Mediatech Inc., Cat. No. 25-052-CI) to lift the cells. The trypsin cell suspension was neutralized with complete F12K media and centrifuged to pellet the cells. The cell pellet was resuspended in complete F12K media at a concentration of 2.0×10^5/mL. Cells were seeded at 20,000 per well, 100 μL total volume, in a flat bottom tissue culture plate and allowed to adhere overnight.
On day two, A549 cells were pre-incubated with a 2,4-pyrimidinediamine test compound or DMSO (control) (Sigma-Aldrich, St. Louis, Mo., Catalog No. D2650) for 1 hour. The cells were then stimulated with IFNγ (75 ng/mL) (Peprotech Inc., Rocky Hill, N.J., Cat. No. 300-02) and allowed to incubate for 24 hours. The final test compound dose range was 30 μM to 14 nM in 200 μL F12K media containing 5% FBS, 0.3% DMSO.
On day three, the cell media was removed and the cells were washed with 200 μL PBS (phosphate buffered saline). Each well was trypsinized to dissociate the cells, then neutralized by addition of 200 μL complete F12K media. Cells were pelleted and stained with an APC conjugated mouse anti-human ICAM-1 (CD54) (BD Pharmingen, San Diego, Calif., Catalog #559771) antibody for 20 minutes at 4° C. Cells were washed with ice cold FACS buffer (PBS+2% FBS) and surface ICAM-1 expression was analyzed by flow cytometry. Detection was performed using a BD LSR I System Flow Cytometer, purchased from BD Biosciences of San Jose, Calif. Events were gated for live scatter and the geometric mean was calculated (Becton-Dickinson CellQuest software version 3.3, Franklin Lakes, N.J.). Geometric means were plotted against the compound concentration to generate a dose response curve.

[4] = tested on: IFNγ induced ICAM-1 (CD54) up-regulation in U937 human monocytic cells (JAK/Stat pathway); test: U937 IFNγ ICAM1 FACS Assay; format: cell-based; conditions: Table III Example 6; 10 ng/mL IFNγ, 18-24 hours
Outline: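 Flow cytometry gave ICAM-1 (CD54) up-regulation as ICAM-APC geometric mean within the live-cell gate, alongside % viable cells. Human monocytic U937 cells received 3-fold serial compound dilutions for 30 min at 37 °C, followed by IFNγ stimulation lasting 18–24 h. Dose curves yielded EC50s.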

CC(C)S(=O)(=O)NCc1ccc(Nc2nc(Nc3ccc(S(N)(=O)=O)cc3)ncc2F)cc1 [Compound I-65, N2-(4-aminosulfonyl)phenyl-5-fluoro-N4-(4-isopropylsulfonylaminomethyl)phenyl-2,4-pyrimidinediamine]
pIC50 [1]: 6.20 | pIC50 [2]: 6.68 | pIC50 [3]: 4.98

CCCN(Cc1ccc(Nc2nc(Nc3ccc(S(N)(=O)=O)cc3)ncc2F)cc1)S(=O)(=O)CC [Compound I-17, N2-(4-aminosulfonyl)phenyl-N4-[4-(N-ethylsulfonyl-N-propylamino)methyl]phenyl-5-fluoro-2,4-pyrimidinediamine]
pIC50 [1]: 5.97 | pIC50 [2]: 6.78 | pIC50 [3]: 5.08

NS(=O)(=O)c1cccc(Nc2ncc(F)c(Nc3ccc(CNS(=O)(=O)c4cccnc4)cc3)n2)c1 [Compound I-95, N2-(3-aminosulfonyl)phenyl-5-fluoro-N4-[4-(pyrid-3-yl)sulfonylaminomethyl]phenyl-2,4-pyrimidinediamine]
pIC50 [1]: 6.54 | pIC50 [2]: 6.80 | pIC50 [4]: 5.57

Cc1cnc(Nc2cccc(S(N)(=O)=O)c2)nc1Nc1ccc(CNS(=O)(=O)C2CC2)cc1 [Compound I-46, N2-(3-aminosulfonyl)phenyl-N4-(4-cyclopropylsulfonylaminomethyl)phenyl-5-methyl-2,4-pyrimidinediamine]
pIC50 [1]: 7.60 | pIC50 [2]: 7.57 | pIC50 [4]: 6.73
